Assay results: patent US8383612B2, “Use of megestrol acetate for improving heart function and the treatment of heart insufficiency” (Par Pharmaceuticals, Inc., priority 2004, dated 2013)
Entries after “also recorded” stand apart in the source; their conditions may differ.

Legend:
[1] = Progression of weight, furosemide-study; format: in vivo, Wistar rat
Method: During the progression of both studies, the animals were weight-determined twice a week, starting from the date of surgery (laboratory balance model CS2000. Ohaus Corporation, Pine Brook, N.J., USA). The results were calculated corresponding to the post-surgical day of the respective animal.
(§1) Groups A, B and C of the infarction animals received furosemide (Lasix® 250 mg ampoule, Aventis Pharma GmbH, Frankfurt am Main, Germany) starting from day 18 (±2 days) for the whole study in a concentration of 8.6 mg/100 ml in drinking water. This corresponds to an initial dosage of 10 mg/kg/d at a weight of 300 g and an amount of drinking water of 35 ml/d.
Animals from the infarction-placebo group (without furosemide) and all sham-animals received drinking water without supplementation.
(§2) The infarction-furosemide-group corresponds to the blinded infarction-placebo-group of the megestrol acetate-Study (here: infarction-furosemide-group). An additional infarction-surgery group received simple drinking water without furosemide and served as control group for the furosemide-study (here: infarction-placebo-group). In order to expose all animals to equal conditions, in this group the furosemide-study was gavaged unblinded with placebo. A further group is the sham-placebo-group, that corresponds to the blinded sham-placebo-group of the megestrol acetate-study (here: sham-placebo-group).
Like in the megestrol acetate-study, the weight values corresponding to the day post-surgery of the respective animal were compared, but this time the data was analysed as a change of weight starting from the beginning of therapy of the furosemide-study (18th day post-surgery=day 0 of the furosemide-study). This therefore results in a 26 days longer period of observation for the diuretic-study in comparison with the megestrol acetate-study. Furosemide was given until the end of the observation period and to removal of organs, respectively.

[2] = tested on: infarction-surgery rats (ligation of the left coronary artery, heart insufficiency); assay: Echocardiography, furosemide-study; format: in vivo, Wistar rat
Method: as §1
Between week 28 and 30 post surgery (corresponds to week 22 to 24 in the megestrol acetate-Study or week 25 to 27 in the diuretic study), the heart function of all rats still alive was examined by echocardiography. For this, each rat was first pre-anaesthetised using isoflurane (Curamed Pharma GmbH Karlsruhe, Germany) in a chamber of the anaesthetic unit Univentor 400 Anaesthesia Unit (Agn Tho's, Lidingö, Sweden) pre-anaesthetised and subsequently maintained by using a mask. For the echocardiography examination the thorax region was shaved and the rat was fixed in a position lying on the back. The echocardiography was performed with an Acuson-Sequoia C256 (Siemens, Germany) which was equipped with a 15 MHz sonication head suitable for rat- and mouse echocardiography. The left ventricle (LV) was adjusted in the parastemal long and short axis. […] The diastolic function was evaluated based on the LV-influx profile via the mitral valve (E/A-ratio) by means of a PW-Doppler. The measurement volume of the PW-doppler was placed at the tip of the opened mitral valve flap. The measurements were performed by an independent blinded researcher. In FIG. 1 the progression of weight for all groups is depicted.
as §2

[3] = infarction-furosemide-group, furosemide via drinking water, placebo in the gavage

## NS(=O)(=O)c1cc(C(=O)O)c(NCc2ccco2)cc1Cl [furosemide]
[1]; infarction-furosemide-group
  increase of weight over the whole period of time: 1.4 g/day
  weight at the end of the observation period: 583 ± 12 g
  weight gained at the end of the observation period: 81%
[1]; infarction-furosemide-group, day 18 following surgery
  mean weight at the beginning of the diuretic-study: 322 ± 3 g
[1]; starting from day 105 after beginning of therapy, significant
  progress of weight in comparison with the placebo-group with infarction: less pronounced progress
[2]; infarction groups with vs. without furosemide
  effect on the echocardiographically determined heart function: no differences; also recorded: no direct effect
[2]; [3]
  A: 0.62 ± 0.05 m/s
  E: 0.84 ± 0.03 m/s
  E:A: 1.61 ± 0.21
  FS: 15.1 ± 1.0 %
  IVS d: 0.13 ± 0.03 cm
  LVEDD: 1.06 ± 0.02 cm
  LVEF: 35.5 ± 2.0 %
  LVESD: 0.90 ± 0.02 cm
  LVHW d: 0.17 ± 0.01 cm
